Data from US10392368B2, “Pyrazolo and triazolo bicyclic compounds as JAK kinase inhibitors” (THERAVANCE BIOPHARMA R&D IP, LLC, priority 2017, dated 2019).
Read-outs that look alike come from different tables or passages of the source.

Tests used:
[1] = target: T1, JAK3 (Homo sapiens, UniProt P52333); experiment: Biochemical JAK3 kinase assay (LanthaScreen); design: GST; purchased Life Technologies; settings: for Ki: read-out: JAK 3 (pKi) (converted)
T1 sequence (P52333 1-1124): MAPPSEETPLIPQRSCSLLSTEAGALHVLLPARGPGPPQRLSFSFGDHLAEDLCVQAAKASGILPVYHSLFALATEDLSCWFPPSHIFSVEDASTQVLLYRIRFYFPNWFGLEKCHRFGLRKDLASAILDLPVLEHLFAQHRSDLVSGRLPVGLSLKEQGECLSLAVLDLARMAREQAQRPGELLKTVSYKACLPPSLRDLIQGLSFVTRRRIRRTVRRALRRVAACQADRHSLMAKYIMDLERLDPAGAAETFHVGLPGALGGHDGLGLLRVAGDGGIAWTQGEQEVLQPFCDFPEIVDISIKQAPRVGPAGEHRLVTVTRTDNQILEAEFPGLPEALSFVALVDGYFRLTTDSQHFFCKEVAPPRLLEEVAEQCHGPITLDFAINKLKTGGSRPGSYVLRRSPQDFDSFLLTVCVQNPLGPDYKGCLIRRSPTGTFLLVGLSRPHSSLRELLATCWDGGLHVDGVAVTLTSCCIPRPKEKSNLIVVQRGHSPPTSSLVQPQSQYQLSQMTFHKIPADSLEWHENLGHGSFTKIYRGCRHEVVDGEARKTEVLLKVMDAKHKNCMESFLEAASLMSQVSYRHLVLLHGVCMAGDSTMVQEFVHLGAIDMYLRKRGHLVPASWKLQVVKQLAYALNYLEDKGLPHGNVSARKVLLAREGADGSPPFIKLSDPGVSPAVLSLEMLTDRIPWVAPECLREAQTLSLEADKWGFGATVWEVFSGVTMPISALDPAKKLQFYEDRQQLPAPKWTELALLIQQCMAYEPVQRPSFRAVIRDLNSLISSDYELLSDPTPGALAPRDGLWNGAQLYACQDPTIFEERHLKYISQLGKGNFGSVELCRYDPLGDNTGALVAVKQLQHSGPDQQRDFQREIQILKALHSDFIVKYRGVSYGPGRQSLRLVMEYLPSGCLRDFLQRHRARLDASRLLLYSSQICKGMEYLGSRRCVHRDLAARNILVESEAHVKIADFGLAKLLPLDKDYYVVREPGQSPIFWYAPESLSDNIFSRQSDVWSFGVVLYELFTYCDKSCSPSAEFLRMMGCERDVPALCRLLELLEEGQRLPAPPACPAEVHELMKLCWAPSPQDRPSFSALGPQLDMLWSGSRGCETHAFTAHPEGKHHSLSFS
Summary of the method: (§1)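 GST-tagged JAK enzyme and GFP-STAT1 peptide preincubated with compound 1 h, then ATP added; 1 h kinase reaction at ambient temperature, pH 7.5 HEPES/MgCl2 buffer, 1% DMSO. Tb-anti-pSTAT1 (pTyr701) TR-FRET, 520/495 nm ratio; IC50 from 4-parameter fit, converted to pKi via Cheng-Prusoff.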

[2] = target: T2, JAK2 (Homo sapiens, UniProt O60674); experiment: Biochemical JAK2 kinase assay (LanthaScreen)
T2 construct: GST; purchased Life Technologies
Method: A panel of four LanthaScreen JAK biochemical assays (JAK1, 2, 3 and Tyk2) were carried in a common kinase reaction buffer (50 mM HEPES, pH 7.5, 0.01% Brij-35, 10 mM MgCl2, and 1 mM EGTA). Recombinant GST-tagged JAK enzymes and a GFP-tagged STAT1 peptide substrate were obtained from Life Technologies.
Serially or discretely diluted compounds were pre-incubated with each of the four JAK enzymes and the substrate in white 384-well microplates (Corning) at ambient temperature for 1 h. ATP was subsequently added to initiate the kinase reactions in 10 μL total volume, with 1% DMSO. […] Kinase reactions were allowed to proceed for 1 hour at ambient temperature before a 10 μL preparation of EDTA (10 mM final concentration) and Tb-anti-pSTAT1 (pTyr701) antibody (Life Technologies, 2 nM final concentration) in TR-FRET dilution buffer (Life Technologies) was added. The plates were allowed to incubate at ambient temperature for 1 h before being read on the EnVision reader (Perkin Elmer).
For dose-response analysis, percent inhibition data were plotted vs. compound concentrations, and IC50 values were determined from a 4-parameter robust fit model with the Prism software (GraphPad Software). Results were expressed as pIC50 (negative logarithm of IC50) and subsequently converted to pKi (negative logarithm of dissociation constant, Ki) using the Cheng-Prusoff equation.

[3] = target: T3, JAK1 (Homo sapiens, UniProt P23458); experiment: Biochemical JAK1 kinase assay (LanthaScreen); settings: for Ki: read-out: JAK 1 (pKi) (converted)
T3 construct: GST; purchased Life Technologies
Summary of the method: as §1

[4] = test system: IL-2 stimulated pSTAT5 in Tall-1 T cells; experiment: Cellular JAK3 potency assay: inhibition of IL-2 stimulated pSTAT5 in Tall-1 T cells; assay type: cell-based, human; settings: for IC50: Homo sapiens, read-out: Tall-1 (pIC50) (converted)
Summary of the method: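 In human Tall-1 T cells, IL-2 (300 ng/ml final, 30 min) drives STAT5 phosphorylation after a 1 h compound pretreatment. Lysates are assayed for pSTAT5 by AlphaLisa, and IC50 derived from signal versus concentration is expressed as pIC50.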

[5] = selectivity: difference of pKi JAK3 and pKi JAK1
[6] = TALL-1, IL-2 stimulated pSTAT5 in Tall-1 T cells
[7] = selectivity JAK3 over JAK1, difference of pKi
[8] = TALL-1, IL-2 stimulated pSTAT5, Tall-1 T cells
[9] = IL-2 stimulated pSTAT5, Tall-1 T cells
[10] = IL-2 stimulated pSTAT5 in Tall-1 T cells

T3 sequence (P23458 whole entry): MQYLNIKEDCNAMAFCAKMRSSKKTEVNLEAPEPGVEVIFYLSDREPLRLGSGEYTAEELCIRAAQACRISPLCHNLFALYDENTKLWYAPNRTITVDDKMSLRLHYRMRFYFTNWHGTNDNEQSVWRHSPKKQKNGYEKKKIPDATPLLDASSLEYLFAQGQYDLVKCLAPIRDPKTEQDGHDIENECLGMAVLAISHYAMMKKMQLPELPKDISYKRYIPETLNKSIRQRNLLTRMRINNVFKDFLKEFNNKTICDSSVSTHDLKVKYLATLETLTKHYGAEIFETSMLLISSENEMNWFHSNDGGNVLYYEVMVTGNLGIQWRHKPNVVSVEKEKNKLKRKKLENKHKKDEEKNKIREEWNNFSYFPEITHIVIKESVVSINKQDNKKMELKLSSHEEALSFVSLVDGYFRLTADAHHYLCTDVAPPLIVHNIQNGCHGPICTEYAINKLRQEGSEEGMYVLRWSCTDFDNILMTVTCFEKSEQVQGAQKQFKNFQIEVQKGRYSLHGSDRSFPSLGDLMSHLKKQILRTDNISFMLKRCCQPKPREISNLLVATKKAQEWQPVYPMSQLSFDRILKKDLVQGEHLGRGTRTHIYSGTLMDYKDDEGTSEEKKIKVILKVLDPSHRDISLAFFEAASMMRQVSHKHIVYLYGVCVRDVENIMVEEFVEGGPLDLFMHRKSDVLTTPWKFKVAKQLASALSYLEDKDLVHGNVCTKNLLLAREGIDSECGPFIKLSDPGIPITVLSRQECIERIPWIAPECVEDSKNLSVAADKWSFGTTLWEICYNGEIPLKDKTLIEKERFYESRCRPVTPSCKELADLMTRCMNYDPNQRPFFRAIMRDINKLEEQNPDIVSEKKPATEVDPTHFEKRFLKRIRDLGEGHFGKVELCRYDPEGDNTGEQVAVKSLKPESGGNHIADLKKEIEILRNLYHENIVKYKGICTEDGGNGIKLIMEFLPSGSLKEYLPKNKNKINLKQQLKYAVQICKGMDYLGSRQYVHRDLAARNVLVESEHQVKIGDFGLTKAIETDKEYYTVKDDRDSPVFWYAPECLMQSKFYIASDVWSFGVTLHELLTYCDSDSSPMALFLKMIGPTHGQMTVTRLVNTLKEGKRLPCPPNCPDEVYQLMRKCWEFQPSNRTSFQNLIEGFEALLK
T2 sequence (O60674 whole entry): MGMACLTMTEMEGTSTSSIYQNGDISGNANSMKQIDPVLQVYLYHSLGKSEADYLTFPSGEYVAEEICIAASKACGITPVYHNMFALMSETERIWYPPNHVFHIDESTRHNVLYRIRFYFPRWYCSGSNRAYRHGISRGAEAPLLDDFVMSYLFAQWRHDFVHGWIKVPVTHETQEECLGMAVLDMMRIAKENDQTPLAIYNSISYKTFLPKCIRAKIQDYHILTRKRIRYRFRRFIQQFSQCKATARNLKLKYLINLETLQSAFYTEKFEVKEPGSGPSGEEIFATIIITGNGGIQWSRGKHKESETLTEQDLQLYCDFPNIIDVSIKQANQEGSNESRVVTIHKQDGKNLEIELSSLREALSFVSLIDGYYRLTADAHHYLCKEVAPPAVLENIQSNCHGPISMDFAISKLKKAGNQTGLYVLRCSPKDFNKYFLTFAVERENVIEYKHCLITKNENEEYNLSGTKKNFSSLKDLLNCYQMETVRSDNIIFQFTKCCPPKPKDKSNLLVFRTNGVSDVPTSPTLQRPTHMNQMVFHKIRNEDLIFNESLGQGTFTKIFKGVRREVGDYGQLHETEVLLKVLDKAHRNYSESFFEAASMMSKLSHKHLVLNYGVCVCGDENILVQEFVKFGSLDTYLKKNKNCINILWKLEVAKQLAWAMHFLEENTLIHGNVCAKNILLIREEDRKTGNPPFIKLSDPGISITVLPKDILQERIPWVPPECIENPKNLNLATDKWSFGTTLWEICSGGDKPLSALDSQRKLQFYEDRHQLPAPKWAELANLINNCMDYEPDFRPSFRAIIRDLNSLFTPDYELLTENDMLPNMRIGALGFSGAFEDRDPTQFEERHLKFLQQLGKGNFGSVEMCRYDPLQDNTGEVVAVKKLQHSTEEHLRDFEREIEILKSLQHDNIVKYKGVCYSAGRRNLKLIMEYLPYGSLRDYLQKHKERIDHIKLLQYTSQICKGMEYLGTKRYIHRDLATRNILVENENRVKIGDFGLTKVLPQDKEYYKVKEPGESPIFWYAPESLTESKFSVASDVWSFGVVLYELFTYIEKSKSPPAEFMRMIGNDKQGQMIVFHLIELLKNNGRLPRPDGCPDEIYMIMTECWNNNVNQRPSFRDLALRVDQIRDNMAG

SMILES	JAK 3 (pKi) [1]	JAK3 (pKi)-JAK1 (pKi) [1, 5]	JAK 2 (pKi) [2]	Ki [3] [nM]	Ki [1] [nM]	IC50 [4, 6] [nM]	JAK3 (pKi)-JAK1 (pKi) [1, 7]	IC50 [4, 8] [nM]	JAK 1 (pKi) [3]	Tall-1 (pIC50) [4, 9]	Tall-1 (pIC50) [4, 10]
C=CC(=O)N1CC(C(C)Oc2nc(-c3ccc(O)cc3)nc3[nH]ncc23)C1 (stereo not shown) [Compound 3-78]	B (a pKi value between 9 and 10 (Ki between 1 nM and 0.1 nM))	A (a value of 3 or above)	E (a pKi value of 7 or below (Ki of 100 nM or above))	–	–	–	–	–	–	–	–
C=CC(=O)N1CC[C@H](Oc2cc(-c3ccc(O)c(F)c3F)cc3[nH]ncc23)C1 [Compound 1-13]	–	B (a value of 2.3 to 3)	–	> 100	0.1 to 1	31.6 to 200	–	–	–	–	–
CN(C)C/C=C/C(=O)N1CCC(Oc2cc(-c3ccc(O)c(Cl)c3)cc3[nH]ncc23)CC1 [Compound 6-19]	–	–	–	10 to 100	0.1 to 1	–	B (a value of 2.3 to 3)	31.6 to 200	–	–	–
C=CC(=O)N1CC[C@H]1C(=O)Nc1cc(-c2ccc(O)cc2)cc2[nH]ncc12 [Compound 12-69]	–	–	–	> 100	< 0.1	–	A (a value of 3 or above)	31.6 to 200	–	–	–
C=CC(=O)N1CC(Oc2cc(-c3ccc(O)cc3)cc3[nH]ncc23)(C(F)(F)F)C1 [Compound 5-26]	B (a pKi value between 9 and 10 (Ki between 1 nM and 0.1 nM))	–	–	–	–	–	B (a value of 2.3 to 3)	–	E (a pKi value of 7 or below (Ki of 100 nM or above))	C (a pIC50 value between 6 and 6.7 (IC50 between 1 μM and 200 nM))	–
C=CC(=O)N1CCC[C@H](S(=O)(=O)c2cc(-c3ccc(O)cc3)cc3[nH]ncc23)C1 [Compound 12-9]	–	–	–	> 100	0.1 to 1	–	A (a value of 3 or above)	200 to 1000	–	–	–
C=CC(=O)N1CC(COc2cc(-c3ccc(O)c(Cl)c3)cc3[nH]nc(C)c23)C1 [Compound 18-6]	–	–	–	10 to 100	0.1 to 1	–	B (a value of 2.3 to 3)	< 31.6	–	–	–
CN(C)CC=CC(=O)N1C2CCC1CC(Oc1cc(-c3ccc(O)c(Cl)c3)cc3[nH]ncc13)C2 (stereo not shown) [Compound 10-3]	B (a pKi value between 9 and 10 (Ki between 1 nM and 0.1 nM))	–	–	–	–	–	B (a value of 2.3 to 3)	–	D (a pKi value between 7 and 8 (Ki between 100 nM and 10 nM))	B (a pIC50 value between 6.7 (included) and 7.5 (IC50 between 200 nM and 32 nM))	–
C=CC(=O)N1CC(C(C)(C)Oc2cc(-c3ccc(O)c(F)c3)cc3[nH]ncc23)C1 [Compound 3-28]	A (a pKi value≥10 (Ki≤0.1 nM))	A (a value of 3 or above)	–	–	–	–	–	–	E (a pKi value of 7 or below (Ki of 100 nM or above))	–	A (a pIC50 value≥7.5 (IC50≤32 nM))
C=CC(=O)N1CCC(S(=O)(=O)c2cc(-c3ccc(O)cc3)cc3[nH]ncc23)CC1 [Compound 12-8]	–	–	–	> 100	0.1 to 1	–	A (a value of 3 or above)	200 to 1000	–	–	–
CN(C)C/C=C/C(=O)N1CC[C@H](COc2nc(-c3ccc(O)c(Cl)c3)cc3[nH]ncc23)C1 [Compound 2-9]	B (a pKi value between 9 and 10 (Ki between 1 nM and 0.1 nM))	B (a value of 2.3 to 3)	–	–	–	–	–	–	E (a pKi value of 7 or below (Ki of 100 nM or above))	–	B (a pIC50 value between 6.7 (included) and 7.5 (IC50 between 200 nM and 32 nM))
C=CC(=O)N1CC[C@H](Nc2cc(-c3ccc(O)cc3)cc3[nH]ncc23)C[C@@H]1C [Compound 12-15]	–	–	–	> 100	0.1 to 1	–	B (a value of 2.3 to 3)	31.6 to 200	–	–	–
C=CC(=O)N1CC(N(C)c2cc(-c3ccc(O)cc3)cc3[nH]ncc23)C1 [Compound 5-9]	B (a pKi value between 9 and 10 (Ki between 1 nM and 0.1 nM))	A (a value of 3 or above)	–	–	–	–	–	–	E (a pKi value of 7 or below (Ki of 100 nM or above))	–	C (a pIC50 value between 6 and 6.7 (IC50 between 1 μM and 200 nM))
C[C@@H]1C[C@H](Oc2cc(-c3ccc(O)cc3)cc3[nH]ncc23)CN1C(=O)/C=C/CN(C)C [Compound 1-10]	–	A (a value of 3 or above)	–	> 100	0.1 to 1	200 to 1000	–	–	–	–	–
CN(C)C/C=C/C(=O)N1CCC(COc2cc(-c3ccc(O)c(Cl)c3)cc3[nH]ncc23)CC1 [Compound 14-3]	B (a pKi value between 9 and 10 (Ki between 1 nM and 0.1 nM))	–	–	–	–	–	B (a value of 2.3 to 3)	–	E (a pKi value of 7 or below (Ki of 100 nM or above))	B (a pIC50 value between 6.7 (included) and 7.5 (IC50 between 200 nM and 32 nM))	–
CN(C)CC=CC(=O)N1C2CCC1CC(Oc1nc(-c3ccc(O)c(Cl)c3)cc3[nH]ncc13)C2 (stereo not shown) [Compound 9-8]	B (a pKi value between 9 and 10 (Ki between 1 nM and 0.1 nM))	–	–	–	–	–	C (a value of 1.8 to 2.3)	–	D (a pKi value between 7 and 8 (Ki between 100 nM and 10 nM))	C (a pIC50 value between 6 and 6.7 (IC50 between 1 μM and 200 nM))	–
C=CC(=O)N1CC(COc2nc(-c3ccc(O)cc3)nc3[nH]ncc23)(OC)C1 [Compound 3-76]	–	A (a value of 3 or above)	–	> 100	< 0.1	31.6 to 200	–	–	–	–	–
CN(C)C/C=C/C(=O)N1CC(N(C)c2cc(-c3ccc(O)cc3)cc3[nH]ncc23)C1 [Compound 5-8]	B (a pKi value between 9 and 10 (Ki between 1 nM and 0.1 nM))	A (a value of 3 or above)	–	–	–	–	–	–	E (a pKi value of 7 or below (Ki of 100 nM or above))	–	C (a pIC50 value between 6 and 6.7 (IC50 between 1 μM and 200 nM))
CN(C)C/C=C/C(=O)N1CC[C@@H](COc2cc(-c3ccc(O)cc3)cc3[nH]ncc23)C1 [Compound 12-19]	–	–	–	> 100	< 0.1	–	A (a value of 3 or above)	200 to 1000	–	–	–
CN(C)C/C=C/C(=O)N1CC(COc2cc(-c3c(F)cc(O)cc3F)cc3[nH]ncc23)C1 [Compound 18-2]	–	–	–	10 to 100	< 0.1	–	C (a value of 1.8 to 2.3)	< 31.6	–	–	–
